Data from patent US20240216317A1, “COMPOSITION FOR PREVENTING, AMELIORATING OR TREATING INFLAMMATORY BOWEL DISEASE COMPRISING COMPOUND ISOLATED FROM ISODON EXCISUS AS EFFECTIVE COMPONENT” (HEALINNOLS INC., priority 2022, published 2024).

Columns and labels:
IL-1β = IL-1β mRNA expression (qPCR) in zebra fish animal model of DSS-induced inflammatory bowel disease; format: in vivo, zebra fish (Danio rerio: AB); conditions: zebra fish larvae, 0.5% DSS, 5 hours treatment; Chemical formula 1 0.3 μM and 1 μM; FIG. 5
Procedure: As a zebra fish animal model of inflammatory bowel disease, wild-type zebra fish (Danio rerio: AB) was used, which was kept in an exclusive breeding facility at conditions including light/dark cycle of 14 hours/10 hours and temperature of 28° C. All the animal experiments were carried out according to the protocol of Ethics Committee for Animal Expectation, Healinno-LS (Registration No.: AEC-20210720-0001), and all the materials were sterilized first before they are used for experiment.
According to a treatment with 0.5% DSS (dextran sulfate sodium, M.W. 36,000-50,000, #160110, MP), which induces “ulcerative colitis” as inflammatory bowel disease by creating a damage in colonic epithelial cells, a zebra fish was induced to have inflammatory bowel disease. Then, by threating the zebra fish with the compound represented by Chemical formula 1 of the present invention at different concentrations (0.3 μM and 1 μM), inhibitory activity on inflammatory bowel disease was examined. […]
The zebra fish larvae which have been treated with the compound represented by Chemical formula 1 of the present invention were then added with TRIzol reagent (300 μl), and then homogenized by using a tissue homogenizer (G20, GINKO). […] Purity and concentration were measured by using a microplate reader (FLUOstar omega, BMG Labtech), and the extracted total RNA was kept at −80° C. […]

RIPK2 = target: T1, RIPK2 (Homo sapiens, UniProt O43353); assay: Inhibitory activity on RIPK2 phosphorylation using Western blot in Caco-2 cells; format: cell-based; conditions: FIG. 1
T1 construct: Caco-2 cells were dissolved by adding buffer solution for degradation; endogenous in cells; host or cells: Caco-2
T1 sequence (O43353 whole entry): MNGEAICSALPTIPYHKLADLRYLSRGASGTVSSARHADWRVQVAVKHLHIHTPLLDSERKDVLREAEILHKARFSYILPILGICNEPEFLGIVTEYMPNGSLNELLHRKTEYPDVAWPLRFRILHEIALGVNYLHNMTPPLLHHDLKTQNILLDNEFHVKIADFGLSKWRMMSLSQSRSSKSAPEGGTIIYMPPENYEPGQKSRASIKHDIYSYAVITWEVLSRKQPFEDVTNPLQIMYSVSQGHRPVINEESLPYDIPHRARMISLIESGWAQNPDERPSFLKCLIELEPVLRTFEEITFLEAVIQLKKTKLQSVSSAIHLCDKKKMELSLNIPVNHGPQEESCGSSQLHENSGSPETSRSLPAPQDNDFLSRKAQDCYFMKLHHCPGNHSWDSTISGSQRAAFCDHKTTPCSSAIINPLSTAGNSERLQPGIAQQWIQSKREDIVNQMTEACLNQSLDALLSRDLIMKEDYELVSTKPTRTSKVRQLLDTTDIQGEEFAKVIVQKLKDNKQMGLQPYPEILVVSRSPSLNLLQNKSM
Procedure: Caco-2 cells were adjusted to have density of 2×10^5 cells/ml. Suspension of the cells (0.5 ml) was aliquoted in apical side membrane phase of a transwell insert 12-well plate. To the basolateral side phase, 1.5 ml of culture medium were added. While replacing the medium with fresh one, once per 2 or 3 days, culture was continued for 21 days approximately, i.e., till to have cell division and suitable TEER (transepithelial electrical resistance) value of monolayer.
For measuring the electric resistance (TEER value, Ω·cm^2) between the apical side and basolateral side, EVOM resistance meter (EVOM2, WPI) was employed.
Once the TEER value of Caco-2 cells is 200 Ω·cm^2 or higher, MDP inside the insert was treated for 24 hours with the compound represented by Chemical formula 1 of the present invention. After washing Caco-2 cells inside the insert with 1×PBS, they were treated with trypsin. After centrifuge and washing with cold 1×PBS, Caco-2 cells were dissolved by adding buffer solution for degradation (50 mM Tris-HCl (pH 8.0), 5 mM EDTA, 15 mM NaCl, 1% NP-40, 1 mM PMSF) followed by centrifuge for 20 minutes at 12,000 rpm, 4° C. Only the supernatant was then collected and protein quantification was carried out by using BCA protein assay kit. […]

Row | Compound | expression amount of IL-1β compared to DSS model group (IL-1β) | inhibitory activity on RIPK2 phosphorylation relative to gefitinib (positive control) (RIPK2) | inhibition of activation of RIPK2 (phosphorylation) (RIPK2; MDP, 24 hours treatment)
1 | Nc1ccc(O)c(C(=O)O)c1 [Compound 5-ASA, 5-aminosalicylic acid, reference compound] | statistically significantly lower |  | 
2 | COC(=O)C[C@H](OC(=O)/C=C/c1ccc(O)c(O)c1)c1ccc(O)c(O)c1 [Compound 1, 3-[3,4-dihydroxyphenyl]acrylic acid 1-[3,4-dihydroxyphenyl]-2-methoxycarbonylethyl ester] | statistically significantly lower | at least 2 times | can inhibit the activation of RIPK2
